For assay [1], the target named is T1, GAA (lysosomal alpha-glucosidase) (Homo sapiens, UniProt P10253).
T1 construct: endogenous enzyme in HEK293T cells (GBA2-expressing line)
The experiment in a line: intact cells treated, residual activity in lysate with 4MU-alpha-D-glucopyranoside. In kind it is cell-based. The conditions noted are these: 24 h treatment of intact HEK293T cells, assay pH 4.0. The source says:
intact cells treated, residual activity in lysate with 4MU-alpha-D-glucopyranoside on GAA (lysosomal alpha-glucosidase)

The target in a further assay is T2, GAA (zebrafish larvae) (Danio rerio, UniProt A0A8M1QKP5).
T2 construct: endogenous enzyme in larvae, measured in larval lysate; paralogues not distinguished
T2 sequence (A0A8M1QKP5 31-918): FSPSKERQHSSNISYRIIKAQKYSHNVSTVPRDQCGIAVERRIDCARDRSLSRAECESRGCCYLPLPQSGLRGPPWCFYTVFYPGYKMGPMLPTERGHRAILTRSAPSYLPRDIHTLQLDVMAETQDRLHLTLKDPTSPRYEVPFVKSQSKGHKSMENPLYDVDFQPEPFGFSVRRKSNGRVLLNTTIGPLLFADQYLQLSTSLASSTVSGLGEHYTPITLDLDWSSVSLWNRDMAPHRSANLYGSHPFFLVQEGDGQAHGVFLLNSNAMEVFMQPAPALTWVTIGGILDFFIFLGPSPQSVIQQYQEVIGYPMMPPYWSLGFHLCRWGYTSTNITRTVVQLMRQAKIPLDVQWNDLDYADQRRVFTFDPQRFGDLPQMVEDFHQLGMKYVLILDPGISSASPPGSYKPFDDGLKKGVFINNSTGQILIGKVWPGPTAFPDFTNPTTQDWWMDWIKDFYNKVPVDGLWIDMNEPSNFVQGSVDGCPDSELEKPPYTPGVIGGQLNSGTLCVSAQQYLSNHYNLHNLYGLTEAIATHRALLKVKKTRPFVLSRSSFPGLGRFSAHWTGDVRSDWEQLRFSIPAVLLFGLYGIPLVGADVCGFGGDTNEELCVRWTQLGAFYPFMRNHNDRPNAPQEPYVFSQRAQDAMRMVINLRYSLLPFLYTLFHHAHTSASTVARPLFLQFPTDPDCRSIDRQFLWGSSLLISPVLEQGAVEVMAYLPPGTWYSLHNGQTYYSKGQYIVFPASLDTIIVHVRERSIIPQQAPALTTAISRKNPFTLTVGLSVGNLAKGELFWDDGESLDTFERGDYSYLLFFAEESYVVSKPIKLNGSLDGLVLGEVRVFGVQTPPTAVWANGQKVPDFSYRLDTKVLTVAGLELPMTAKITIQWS
In words: live larvae exposed, residual activity in lysate with 4MU-alpha-D-glucopyranoside. The conditions noted are these: in vivo: concentration in egg water, 5 days at 28.5 °C, assay pH 4.0. The source says: live larvae exposed, residual activity in lysate with 4MU-alpha-D-glucopyranoside on GAA (zebrafish larvae)

For a further assay, the target named is T3, GBA3 (Homo sapiens, UniProt Q9H227).
T3 construct: human GBA3 overexpressed in HEK293T; expected 45-53 kDa
T3 sequence (Q9H227 1-469): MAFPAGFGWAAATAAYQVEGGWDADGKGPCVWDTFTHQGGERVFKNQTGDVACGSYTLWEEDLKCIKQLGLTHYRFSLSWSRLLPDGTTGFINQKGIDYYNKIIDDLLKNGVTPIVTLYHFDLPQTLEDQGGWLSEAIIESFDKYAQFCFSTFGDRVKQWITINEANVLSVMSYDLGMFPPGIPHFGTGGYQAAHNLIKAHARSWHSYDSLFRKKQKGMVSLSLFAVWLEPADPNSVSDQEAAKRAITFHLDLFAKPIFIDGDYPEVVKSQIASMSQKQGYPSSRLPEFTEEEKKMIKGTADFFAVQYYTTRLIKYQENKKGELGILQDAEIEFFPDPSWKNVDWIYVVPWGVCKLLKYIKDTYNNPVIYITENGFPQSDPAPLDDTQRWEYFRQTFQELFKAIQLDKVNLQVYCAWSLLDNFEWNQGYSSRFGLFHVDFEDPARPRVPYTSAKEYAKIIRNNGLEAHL
The experiment in a line: intact cells treated, residual activity in lysate supernatant with 4MU-glucoside. In kind it is cell-based. An excerpt: intact cells treated, residual activity in lysate supernatant with 4MU-glucoside on GBA3

The test system of the next assay is T4, GANAB (zebrafish larvae).
T4 construct: endogenous enzyme in larvae, measured in larval lysate; paralogues not distinguished
In words: live larvae exposed, residual activity in lysate with 4MU-alpha-D-glucopyranoside. More on the design: species or system Danio rerio. The conditions noted are these: covalent; in vivo: concentration in egg water, 5 days at 28.5 °C; assay pH 7.0; read-out: CBE / Enz. assay. An excerpt: live larvae exposed, residual activity in lysate with 4MU-alpha-D-glucopyranoside on GANAB (zebrafish larvae)

The next assay deals with T5, GUSB (zebrafish larvae) (Danio rerio, UniProt F1QGS9).
T5 construct: endogenous enzyme in larvae, measured in larval lysate
T5 sequence (F1QGS9 26-644): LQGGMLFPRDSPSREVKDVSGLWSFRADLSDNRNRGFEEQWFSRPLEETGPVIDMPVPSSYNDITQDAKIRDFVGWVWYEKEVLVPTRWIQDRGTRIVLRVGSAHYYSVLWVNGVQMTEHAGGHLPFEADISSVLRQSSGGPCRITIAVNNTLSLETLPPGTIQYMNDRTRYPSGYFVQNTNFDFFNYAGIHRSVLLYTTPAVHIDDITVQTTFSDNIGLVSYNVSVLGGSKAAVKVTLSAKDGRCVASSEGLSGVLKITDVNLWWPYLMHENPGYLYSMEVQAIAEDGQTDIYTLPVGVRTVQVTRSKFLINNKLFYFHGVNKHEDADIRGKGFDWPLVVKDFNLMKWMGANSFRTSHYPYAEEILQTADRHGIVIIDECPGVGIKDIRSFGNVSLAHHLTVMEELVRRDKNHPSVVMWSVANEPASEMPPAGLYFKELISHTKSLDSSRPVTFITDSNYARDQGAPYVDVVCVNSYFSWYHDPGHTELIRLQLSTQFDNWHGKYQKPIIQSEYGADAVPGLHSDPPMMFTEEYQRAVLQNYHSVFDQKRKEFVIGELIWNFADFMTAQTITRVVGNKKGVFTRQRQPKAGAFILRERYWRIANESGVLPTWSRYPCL
In words: live larvae exposed, residual activity in lysate with 4MU-beta-D-glucuronide. The conditions noted are these: covalent; in vivo: concentration in egg water, 5 days at 28.5 °C; assay pH 5.0; read-out: CBE / Enz. assay. The source says:
live larvae exposed, residual activity in lysate with 4MU-beta-D-glucuronide on GUSB (zebrafish larvae)

The mark [2] stands for this setting: covalent, read-out: CBE / Enz. assay.

Like-named read-outs stand apart in the source and are kept apart here.

Consider `OC1C(O)C(O)C2OC2C1O` (centres unmarked) [compound 1, conduritol B epoxide], for which the IC50 in assay [1] (setting [2]) stood at 309 µM; at GAA (zebrafish larvae) (setting [2]), 5010 µM; at GBA3 (read-out: CBE / Enz. assay), 474 µM; in the assay with GANAB (zebrafish larvae) it was 4550 µM; at GUSB (zebrafish larvae), 6380 µM.
As for `OC[C@@H]1[C@@H](O)[C@H](O)[C@@H](O)[C@@H]2O[C@H]12` [compound 2, cyclophellitol], the IC50 in assay [1] (read-out: CP / Enz. assay) is more than 10 µM; at GAA (zebrafish larvae) (read-out: CP / Enz. assay) it was more than 100 µM; at GBA3 (read-out: CP / Enz. assay) it was more than 10 µM.

(Values after article PMC6850446, “In vivo inactivation of glycosidases by conduritol B epoxide and cyclophellitol as revealed by activity‐based protein profiling” (The Febs Journal, 2019).)
